Results on 5 compounds are retold here after patent publication US7585826B2, “Compositions counteracting pesticides and malodorants” (priority 2007, dated 2009).

SMILES strings stand for the structures.

A short description of series [1]: Time-course decomposition of pesticides reacted with the composition prepared in Example 1 (HPLC). It is filed as physicochemical. Particulars: 7.5 mL of 10 ppm pesticide + 2.5 mL composition of Example 1; after 5.0 min reaction time. The procedure:
7.5 mL of a pesticide solution, containing 10 ppm Terbufos, Diazinon, Hexaconazole, or Fenobucard, was allowed to react with 2.5 mL of the composition prepared in Example 1 for 1.0 min, 3.0 min, and 5.0 min, respectively. HPLC was used to determine the concentrations of the pesticide.

The nature of series [2]: Decomposition rate of 17 pesticides mixed with the composition prepared in Example 1 (HPLC), against tap water or 10% brine controls. It is filed as physicochemical. Particulars: 10 ppm pesticide, composition of Example 1, 5 min; among seventeen pesticides. As for the experimental part: The above-prepared composition was tested to decompose 17 pesticides, i.e., Diazinon, Terbufos, Acephate, Glyphosate, Phosmet, Mevinphos, Benomyl, Metalaxyl, Pyrnetrozine, Methomyl, Fenobucard, Carbendazim, Pencycuron, Hexaconazole, Thiophanate-methyl, Cartap, and Thiabendazole. The decomposition rates were measured as follows:
Each pesticide was dissolved in tap water at a concentration of 10 ppm. 10 mL pesticide solution was mixed with 10 mL of the composition prepared in Example 1 for 5 min. 10 mL pesticide solution was also mixed with 10 mL tap water or 10 mL 10% brine solution to prepare control solution. The pesticide concentration of each tested reaction solution was measured by high performance liquid chromatography.

For the compound `CCC(C)c1ccccc1OC(=O)NC` (stereo not shown) [Fenobucard], the pesticide decomposed in series [1] is given as 76%.

Regarding `COP(=O)(NC(C)=O)SC` (stereo not shown) [Acephate], in series [2], the “decomposition rate compared with the other pesticides tested” value is reported as “higher rates than the others”. For `CCOP(=S)(OCC)Oc1cc(C)nc(C(C)C)n1` [Diazinon], in series [1], the pesticide decomposed came to 87%. For `CCCCC(O)(Cn1cncn1)c1ccc(Cl)cc1Cl` (stereo not shown) [Hexaconazole], in series [2], the “decomposition rate compared with the other pesticides tested” value was “higher rates than the others”. Moreover, the pesticide decomposed in series [1] is 85%.

Consider `CCOP(=S)(OCC)SCSC(C)(C)C` [Terbufos], for which the “decomposition rate compared with the other pesticides tested” value in series [2] is on record as “higher rates than the others”. Also, the pesticide decomposed in series [1] amounted to 91%.
